Laboratory results as given in article PMC10257182, “Discovery of senolytics using machine learning” (Nature Communications, 2023).
Values joined by “and” are separate entries in the source; they are usually repeats but may differ in a detail not shown here. Equal entries are not always repeated.

Experiments:
Format in all cases: cell-based, human
[1] = system: senescent IMR90 ER:RAS cells; test: Cell survival assay using crystal violet staining, OIS, senescent cells
Method: (§1) Equal numbers of control and senescent cells were plated at high density on multiwell plates just before senolytic treatment addition. After treatment, cells were fixed on 0.5% glutaraldehyde (Sigma) and then dried at RT overnight. Then, wells were stained with crystal violet solution for 3 h, washed and dried. Once they were completely dry, the plates were scanned for records. Quantification was performed extracting the staining with 1% acetic acid and measuring the final solution by absorbance at 595 nm.

[2] = system: control IMR90 ER:STOP cells; test: Cell survival assay using crystal violet staining, OIS, control cells; conditions: FIG 4B, ER:STOP cells
Method: as §1

[3] = system: IMR90 cells at passage 27 (replicative senescence); test: Cell survival assay using crystal violet staining, replicative senescence
Source text: (§2) IMR90 (CCL-186) human foetal lung fibroblasts and A549 (CCL-185) human lung adenocarcinoma cells were obtained from the American Type Culture Collection (ATCC, Manassas, VA). The cell lines were confirmed to be mycoplasma negative (Lonza MycoAlert, cat #LT07-118). IMR90 ER:RAS is a derivative of IMR90 cells expressing a switchable version of oncogenic H-Ras[84]. IMR90 ER:RAS and A549 cells were maintained in Dulbecco’s Modified Eagle Medium (DMEM, ThermoFisher) supplemented with foetal bovine serum (10%), L-glutamine (2 mM, ThermoFisher), and antibiotic-antimycotic solution (1%, ThermoFisher) and incubated under standard tissue culture conditions (37 °C and 5% CO2). For induction of the senescent phenotype, IMR90-ER:RAS cells were cultured in hydroxytamoxifen (4-OHT) (Sigma) added media at 100 nM final concentration. IMR90 were kept in culture for over 27 passages for replicative senescence. Cells were tested for mycoplasma on a regular basis.
as §1

[4] = system: IMR90 cells at passage 13 (control)
Source text: as §2, §1

[5] = system: A549 cells treated with 100 μM etoposide; test: Cell survival assay using crystal violet staining, TIS, senescent cells
Method: (§3) Equal numbers of control and senescent cells were plated at high density on multiwell plates just before senolytic treatment addition. After treatment, cells were fixed on 0.5% glutaraldehyde (Sigma) and then dried at RT overnight. Then, wells were stained with crystal violet solution for 3 h, washed and dried. Once they were completely dry, the plates were scanned for records. Quantification was performed extracting the staining with 1% acetic acid and measuring the final solution by absorbance at 595 nm. […]
(§4) cells per condition is indicated. (d) Cell survival assay measuring the senolytic effect in lung cancer senescent cells. The panels show a representative crystal violet staining of tissue culture dishes of confluent A549 cells treated with 100 μM etoposide and control A549 cells, all treated with 10 nM oleandrin, ouabain and periplocin, and DMSO as vehicle control for 72 hours as indicated. (e) Graph representing the cell survival by quantification of the crystal violet staining of the experiment described in (d), as described in Methods. Data represented as individual datapoints, and bars and error bars representing the mean ± SEM of 14 independent experiments. Statistical analysis was performed using a one-way ANOVA (Tukey’s test) for multiple comparisons. […]
(§5) Scale bars represent 100 μm. ns = not significant, * = p < 0.05, ** = p < 0.01, *** = p < 0.001, **** = p < 0.0001. Source data are provided as a Source Data file.

[6] = system: control A549 cells; test: Cell survival assay using crystal violet staining, TIS, control cells
Method: as §3, §4, §5

[7] = system: caspase 3/7 activity in senescent IMR90 ER:RAS cells; test: Caspase 3/7 activity assay; set-up: Caspase 3/7 activity time course (SUP FIG 9F) / Caspase 3/7 activity time course (SUP FIG 9F exp not shown): unit not given here; conditions: for Caspase 3/7 activity time course (SUP FIG 9F) / Caspase 3/7 activity time course (SUP FIG 9F exp not shown): ER:RAS cells; for Caspase 3/7 activity time course (SUP FIG 9F exp not shown): second experiment, data not shown
Method: IMR90 ER:STOP and IMR90 ER:RAS cells were cultured with 100 nM 4-OHT for 5 days. Cell were then plated in a multiwell plate at high density. Once cells were attached, Caspase 3/7 probe (C10423 Invitrogen) and senolytic drugs, oleandrin, ouabain and periplocin at 10 nM, were added to the media and cultured for 36 h. Time lapse imaging was recorded every hour on a Leica AF6500 microscope (10x). ImageJ 1.53k was used for positive cell counting.

[8] = system: proliferating IMR90 cells; test: BrdU incorporation proliferation assay
Method: 5-bromo-2′-deoxyuridine (BrdU) incorporation was used to measure the number of cells actively replicating DNA. Cells were incubated with 10 μM BrdU (85811, Sigma) for 18 h. After that, cells were fixed with 4% Paraformaldehyde, permeabilised, blocked and then stained for immunofluorescence using BrdU primary antibody (555627 BD Pharmigen), Alexa fluor secondary for detection, and DAPI staining for cell counting. Acquisition was done with a Nikon TI2 microscope and analysis was performed with ImageJ for cell counting.

[9] = system: A549 cells treated with 100 μM etoposide; test: Cell survival assay using crystal violet staining, TIS, senescent cells; conditions: fraction of Control DMSO = 1, n 15

## CO[C@H]1C[C@H](O[C@H]2CC[C@@]3(C)[C@H](CC[C@@H]4[C@@H]3CC[C@]3(C)[C@@H](C5=CC(=O)OC5)[C@@H](OC(C)=O)C[C@]43O)C2)O[C@@H](C)[C@@H]1O [Oleandrin, oleandrin]
[1]; FIG 4B, ER:RAS cells, individual replicate values, ER:STOP DMSO = 100
  % Cell Survival: 37.9% and 39.1% and 12.2% and 30.1% and 44.2% and 34.9% and 40.3% and 12.5% and 41% and 10.4% and 36% and 34.1%
[1]; FIG 4B, ER:RAS cells, mean of n=12 as fraction of STOP DMSO = 1
  Mean (cell survival, Tukey test details): 0.3106
[1]; IMR90-ER:RAS cells undergoing OIS, 10 nM, 72 h
  cytotoxic activity / cellular content (crystal violet), in words: significant drop in cellular content
[2]; individual replicate values, ER:STOP DMSO = 100
  % Cell Survival: 89.1% and 95.2% and 73.8% and 89.4% and 107.6% and 89% and 95.8% and 77.8% and 100% and 72.7% and 87.5% and 82.7%
[2]; mean of n=12 as fraction of STOP DMSO = 1
  Mean (cell survival, Tukey test details): 0.8838
[3]; FIG 4C, RS cells, mean of n=12 as fraction of Young DMSO = 1
  Mean (cell survival, Tukey test details): 0.4453
[3]; FIG 4C, Replicative Senescence (RS) cells, individual replicate values, Control DMSO = 100
  % Cell Survival: 54.5% and 40.7% and 48% and 38.1% and 50.7% and 43.4% and 31.1% and 55% and 50.3% and 37.4% and 44.9% and 40.3%
[3]; replicative senescence IMR90, 10 nM, 72 h
  cellular content in senescent cultures (crystal violet), in words: significant reduction in cellular content
[4]; FIG 4C, Young (control) cells, mean of n=12 as fraction of Young DMSO = 1
  Mean (cell survival, Tukey test details): 0.8637
[4]; IMR90 control, 10 nM, 72 h
  cellular density in non-senescent control cultures, in words: unchanged
[5]; A549 TIS with etoposide, 10 nM, 72 h
  cellular content in senescent cultures (crystal violet), in words: significant reduction in cellular content
[5]; Etoposide-treated (senescent) cells, Control DMSO = 100, single replicates (SUP FIG 9E)
  % Cell Survival: 39.4% and 53.4% and 51.6% and 7.8% and 48.5% and 38.4% and 46.7% and 32.6% and 33.1% and 7.9% and 36.2% and 37.5% and 30.5% and 41.5%
[6]; A549 control, 10 nM, 72 h
  cellular density in non-senescent control cultures, in words: unchanged
[6]; Control (no etoposide) cells, Control DMSO = 100, single replicates (SUP FIG 9E)
  % Cell Survival: 99.6% and 145% and 133.8% and 119.3% and 135.9% and 111.6% and 113.5% and 93% and 97.3% and 116% and 109.5% and 116.3% and 95.4% and 109%
[7]; 01:00:00 hours
  Caspase 3/7 activity time course (SUP FIG 9F): 0.9
  Caspase 3/7 activity time course (SUP FIG 9F exp not shown): 0.75
[7]; 05:00:00 hours
  Caspase 3/7 activity time course (SUP FIG 9F): 1.1
  Caspase 3/7 activity time course (SUP FIG 9F exp not shown): 1.25
[7]; 10:00:00 hours
  Caspase 3/7 activity time course (SUP FIG 9F): 2.3
  Caspase 3/7 activity time course (SUP FIG 9F exp not shown): 3.9
[7]; 15:00:00 hours
  Caspase 3/7 activity time course (SUP FIG 9F): 3
  Caspase 3/7 activity time course (SUP FIG 9F exp not shown): 7.9
[7]; 20:00:00 hours
  Caspase 3/7 activity time course (SUP FIG 9F): 4
  Caspase 3/7 activity time course (SUP FIG 9F exp not shown): 13.8
[7]; 1 day, 1:00:00
  Caspase 3/7 activity time course (SUP FIG 9F): 7.8
  Caspase 3/7 activity time course (SUP FIG 9F exp not shown): 16.55
[7]; 1 day, 6:00:00
  Caspase 3/7 activity time course (SUP FIG 9F): 11
  Caspase 3/7 activity time course (SUP FIG 9F exp not shown): 18.55
[7]; 1 day, 11:00:00
  Caspase 3/7 activity time course (SUP FIG 9F): 13.5
  Caspase 3/7 activity time course (SUP FIG 9F exp not shown): 19.65
[7]; ER:RAS, 100 nM 4OHT, 10 nM compound, 35 h
  Casp3/7 activity (percentage of green fluorescent cells): 92.2%
[8]; IMR90 cells, n 4
  % BrdU positive cells, mean (Test details, Mean 2): 69.23%
[8]; IMR90 cells, single replicates (SUP FIG 9G)
  % BrdU positive cells: 69.38% and 67.43% and 69.89% and 70.23%
[8]; proliferating IMR90 cells, 10 nM
  proliferation by BrdU incorporation, in words: none of the cardiac glycosides induced unwanted changes in proliferation
[9]
  Cell survival, mean (Test details, Mean 2): 0.3827
